17 compounds from patent US10590086B2, “Pharmaceutical compound” (IOmet Pharma Ltd., priority 2014, dated 2020) can be followed below.

Experiment [1] addresses T1, IDO (Homo sapiens, UniProt P14902). In words: hIDO biochemical coupled assay. Conditions: 45 μM L-tryptophan, 17 minutes, room temperature; read-out: hIDO biochemical assay pIC50 (converted).
The target in experiment [2] is T2, TDO (Homo sapiens, UniProt P48775). In words: hTDO biochemical coupled assay. The note with it: 330 μM L-tryptophan, 17 minutes, room temperature; read-out: hTDO biochemical assay pIC50 (converted).
T2 sequence (P48775 whole entry): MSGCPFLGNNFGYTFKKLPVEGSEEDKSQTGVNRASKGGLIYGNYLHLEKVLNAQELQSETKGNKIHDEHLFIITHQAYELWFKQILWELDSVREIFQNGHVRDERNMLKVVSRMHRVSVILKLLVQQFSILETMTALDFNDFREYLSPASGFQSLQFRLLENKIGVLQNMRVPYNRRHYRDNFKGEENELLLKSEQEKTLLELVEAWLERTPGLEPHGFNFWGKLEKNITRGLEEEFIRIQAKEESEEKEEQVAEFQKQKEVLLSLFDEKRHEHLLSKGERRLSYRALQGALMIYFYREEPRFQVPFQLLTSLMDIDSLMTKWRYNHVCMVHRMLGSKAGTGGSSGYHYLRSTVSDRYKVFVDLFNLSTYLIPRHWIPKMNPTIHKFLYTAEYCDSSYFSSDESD
Description: Two different assays were employed: 1. a cell-based assay for detecting the effect of test compounds on kynurenine production in two different cancer cell types. This assay utilised cancer cells which expressed either TDO or IDO and as such was used as a means of testing compound activity at these two enzymes in a cell-based context. 2. a TDO and IDO biochemical coupled assay which utilised recombinantly produced and purified TDO and IDO enzymes in combination with the enzyme formamidase. This coupled enzyme system allowed conversion of N-formylkynurenine produced by TDO or IDO activity to kynurenine which was then quantified by fluorescence following addition of Erhlich's Reagent The protocols for these are set out below.
Experiment [3] deals with T1, IDO. Nature of the experiment: SKOV3 kynurenine cell-based assay (IDO induced by IFN-γ). The arrangement: IDO expression was induced in the SKOV3 cells by the addition of 500 ng/ml IFN-γ; endogenous in cells; host or cells: SKOV3 (human ovarian adenocarcinoma), induced with IFN-γ. Conditions: SKOV3 human ovarian adenocarcinoma cells, 500 ng/ml IFN-γ, 48 hours, 500 μM L-tryptophan; read-out: SKOV3 Kynurenine cell based assay pIC50 (converted). The essentials: (§1)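 A172 glioblastoma cells (TDO; 30,000/well) and SKOV3 ovarian cells (IDO induced with 500 ng/ml IFN-γ; 40,000/well) were grown in phenol red-free RPMI with 10% FCS, 2 mM L-glutamine and 500 μM L-tryptophan. They were incubated ±compound for 48 hours at 37 °C. Supernatant kynurenine was read with Ehrlich's reagent (5 min) at […] absorbance.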

The target in experiment [4] is T2, TDO. In words: A172 kynurenine cell-based assay. The arrangement: This assay utilised cancer cells which expressed either TDO or IDO; endogenous in cells; host or cells: A172 (human glioblastoma). Conditions: A172 human glioblastoma cells, 48 hours, 500 μM L-tryptophan; read-out: A172 Kynurenine cell based assay pIC50 (converted). In a few lines:
as §1

T1 sequence (P14902 whole entry): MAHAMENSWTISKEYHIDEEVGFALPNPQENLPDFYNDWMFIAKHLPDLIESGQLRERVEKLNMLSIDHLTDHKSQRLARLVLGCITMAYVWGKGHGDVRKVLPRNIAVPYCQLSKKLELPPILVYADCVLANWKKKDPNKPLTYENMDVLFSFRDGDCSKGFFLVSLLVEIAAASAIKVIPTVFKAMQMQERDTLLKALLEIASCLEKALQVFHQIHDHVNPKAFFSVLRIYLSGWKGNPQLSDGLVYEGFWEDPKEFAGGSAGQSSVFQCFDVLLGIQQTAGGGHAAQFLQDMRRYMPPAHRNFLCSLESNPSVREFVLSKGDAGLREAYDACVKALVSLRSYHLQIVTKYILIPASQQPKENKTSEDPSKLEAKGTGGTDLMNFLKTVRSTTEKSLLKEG

In the case of `CC(=O)N(C)C1CCN(c2cc(Cl)cc3[nH]ncc23)CC1` [Compound 251], the IC50 on IDO [1] was less than 3.16 µM; at TDO [2] it was less than 3.16 µM; at IDO [3], 3.24 to 31.6 µM; at TDO [4], less than 3.16 µM.
Consider `NC(=O)C1CCN(c2cc(Cl)cc3[nH]ncc23)CC1` [Compound 226], for which the IC50 on IDO [1] was less than 3.16 µM; at TDO [2], less than 3.16 µM; on IDO [3] it was 3.24 to 31.6 µM; on TDO [4] it was less than 3.16 µM.
For `CN(c1cc(C2CCN(S(C)(=O)=O)CC2)c2cn[nH]c2c1)S(C)(=O)=O` [Compound 338], the IC50 on IDO [1] was more than 100 µM; on TDO [2] it was more than 100 µM; at IDO [3] it was more than 100 µM; at TDO [4] it was 3.24 to 31.6 µM.
For `CC(C)CC(O)c1cc(Cl)cc2[nH]ncc12` (centres unmarked) [Compound 272], the IC50 on IDO [1] is 32.4 to 100 µM; at TDO [2], less than 3.16 µM; at IDO [3] it was 3.24 to 31.6 µM; at TDO [4] it was less than 3.16 µM.
In the case of `NS(=O)(=O)N1CC2(CCN(c3cc(Cl)cc4[nH]ncc34)CC2)C1` [Compound 367], the IC50 on IDO [1] was 3.24 to 31.6 µM; at TDO [2] it was less than 3.16 µM; on IDO [3], 3.24 to 31.6 µM; at TDO [4], less than 3.16 µM.
In the case of `O=C1CCC2(CCN1)CCN(c1cc(Cl)cc3[nH]ncc13)CC2` [Compound 394], the IC50 is 3.24 to 31.6 µM at IDO [1], less than 3.16 µM on TDO [2], less than 3.16 µM at IDO [3] and less than 3.16 µM at TDO [4].
Take `Clc1cc(C2CCOCC2)c2cn[nH]c2c1` [Compound 426]: the IC50 on IDO [1] is 3.24 to 31.6 µM; at TDO [2], less than 3.16 µM; at IDO [3], more than 100 µM; on TDO [4], less than 3.16 µM.
Regarding `Clc1cc(N2C[C@H]3CC[C@@H](C2)NC3)c2cn[nH]c2c1` [Compound 448], the IC50 is 3.24 to 31.6 µM on IDO [1], less than 3.16 µM on TDO [2], more than 100 µM on IDO [3] and less than 3.16 µM on TDO [4].
Regarding `Cn1ccnc1CN1C(=O)NC2(CCN(c3cc(Cl)cc4[nH]ncc34)CC2)C1=O` [Compound 408], the IC50 at IDO [1], at TDO [2], at IDO [3] and at TDO [4] was less than 3.16 µM each time.
Take `CC1(C)CN(c2cc(C(F)F)cc3[nH]ncc23)CCN1S(C)(=O)=O` [Compound 370]: the IC50 on IDO [1], on TDO [2], at IDO [3] and on TDO [4] was less than 3.16 µM each time.
In the case of `CN(C)S(=O)(=O)N1CCN(c2cccc3[nH]ncc23)CC1` [Compound 21], the IC50 on IDO [1] was more than 100 µM; on TDO [2], 3.24 to 31.6 µM; at IDO [3], 32.4 to 100 µM; at TDO [4], 3.24 to 31.6 µM.
As for `CS(=O)(=O)NCCN1C(=O)NC2(CCN(c3cc(Cl)cc4[nH]ncc34)CC2)C1=O` [Compound 416], the IC50 is less than 3.16 µM on IDO [1], less than 3.16 µM at TDO [2], 3.24 to 31.6 µM on IDO [3] and less than 3.16 µM at TDO [4].
As to `CC(=O)N1CCC(n2cc(-c3cc(Cl)cc4[nH]ncc34)cn2)CC1` [Compound 348], the IC50 was more than 100 µM on IDO [1], less than 3.16 µM at TDO [2], 3.24 to 31.6 µM on IDO [3] and less than 3.16 µM on TDO [4].
In the case of `Clc1cc(N2CCc3ccccc3C2)c2cn[nH]c2c1` [Compound 304], the IC50 was more than 100 µM at IDO [1], less than 3.16 µM on TDO [2], 32.4 to 100 µM on IDO [3] and less than 3.16 µM on TDO [4].
Regarding `CC(=O)N1CCOC2(CCN(c3cc(Cl)cc4[nH]ncc34)CC2)C1` [Compound 409], the IC50 at IDO [1] was 32.4 to 100 µM; on TDO [2], less than 3.16 µM; at IDO [3], more than 100 µM; at TDO [4], 3.24 to 31.6 µM.
In the same order, the values of `Cc1c2c(nn1C)CCN(c1cc(Cl)cc3[nH]ncc13)C2` [Compound 378] are more than 100 µM, less than 3.16 µM, 3.24 to 31.6 µM and less than 3.16 µM.
In the same order, the values of `CC1(C)CN(c2cc(Cl)cc3c(N)noc23)CCN1S(C)(=O)=O` [Compound 317] are more than 100 µM, 3.24 to 31.6 µM, 32.4 to 100 µM and more than 100 µM.
